Source: PubChem BioAssay AID1259407 (Chemical Carcinogenesis Research Information System (CCRIS), 2018)
Activity calls are given as the source filed them. How the calls were made is not given here.

Test system: CCRIS mutagenicity, Ames/micronucleus/aberration tests
Assay: CCRIS mutagenicity studies
[1] = Test System: AMES SALMONELLA TYPHIMURIUM, Strain/Indicator: TA98, Metabolic Activation: NONE, Method: PREINCUBATION
[2] = Test System: AMES SALMONELLA TYPHIMURIUM, Strain/Indicator: TA100, Metabolic Activation: NONE, Method: PREINCUBATION
[3] = Test System: AMES SALMONELLA TYPHIMURIUM, Strain/Indicator: TA1535, Metabolic Activation: NONE, Method: PREINCUBATION
[4] = Test System: AMES SALMONELLA TYPHIMURIUM, Strain/Indicator: TA1537, Metabolic Activation: NONE, Method: PREINCUBATION
[5] = Test System: AMES SALMONELLA TYPHIMURIUM, Strain/Indicator: TA98, Metabolic Activation: NONE, Method: STANDARD PLATE

SMILES: NS(=O)(=O)c1cc2c(cc1Cl)NC=NS2(=O)=O
- mutagenic call (Test System: AMES SALMONELLA TYPHIMURIUM, Strain/Indicator: TA97, Metabolic Activation: HAMSTER, LIVER, S-9, AROCLOR 1254 (10 OR 30%), Method: PREINCUBATION): inactive; negative
- mutagenic call (Test System: AMES SALMONELLA TYPHIMURIUM, Strain/Indicator: TA97, Metabolic Activation: NONE, Method: PREINCUBATION): inactive; negative
- mutagenic call (Test System: AMES SALMONELLA TYPHIMURIUM, Strain/Indicator: TA97, Metabolic Activation: RAT, LIVER, S-9, AROCLOR 1254 (10 OR 30%), Method: PREINCUBATION): inactive; negative
- mutagenic call (Test System: AMES SALMONELLA TYPHIMURIUM, Strain/Indicator: TA98, Metabolic Activation: HAMSTER, LIVER, S-9, AROCLOR 1254 (10 OR 30%), Method: PREINCUBATION): inactive; negative
- mutagenic call [1]: inactive; negative
- mutagenic call (Test System: AMES SALMONELLA TYPHIMURIUM, Strain/Indicator: TA98, Metabolic Activation: RAT, LIVER, S-9, AROCLOR 1254 (10 OR 30%), Method: PREINCUBATION): inactive; negative
- mutagenic call (Test System: AMES SALMONELLA TYPHIMURIUM, Strain/Indicator: TA100, Metabolic Activation: HAMSTER, LIVER, S-9, AROCLOR 1254 (10 OR 30%), Method: PREINCUBATION): inactive; negative
- mutagenic call [2]: inactive; negative
- mutagenic call (Test System: AMES SALMONELLA TYPHIMURIUM, Strain/Indicator: TA100, Metabolic Activation: RAT, LIVER, S-9, AROCLOR 1254 (10 OR 30%), Method: PREINCUBATION): inactive; negative
- mutagenic call (Test System: AMES SALMONELLA TYPHIMURIUM, Strain/Indicator: TA1535, Metabolic Activation: HAMSTER, LIVER, S-9, AROCLOR 1254 (10 OR 30%), Method: PREINCUBATION): inactive; negative
- mutagenic call [3]: inactive; negative
- mutagenic call (Test System: AMES SALMONELLA TYPHIMURIUM, Strain/Indicator: TA1535, Metabolic Activation: RAT, LIVER, S-9, AROCLOR 1254 (10 OR 30%), Method: PREINCUBATION): inactive; negative
- mutagenic call (Test System: AMES SALMONELLA TYPHIMURIUM, Strain/Indicator: TA1537, Metabolic Activation: HAMSTER, LIVER, S-9, AROCLOR 1254 (30%), Method: PREINCUBATION): inactive; negative
- mutagenic call [4]: inactive; negative
- mutagenic call (Test System: AMES SALMONELLA TYPHIMURIUM, Strain/Indicator: TA1537, Metabolic Activation: RAT, LIVER, S-9, AROCLOR 1254 (30%), Method: PREINCUBATION): inactive; negative

SMILES: O=Nc1ccc2ccc3c4c(cc5ccc1c2c53)CCCC4
- mutagenic call [5]: active; positive

SMILES: Nc1nc(N)c2nc(-c3ccccc3)c(N)nc2n1
- mutagenic call (Test System: AMES SALMONELLA TYPHIMURIUM, Strain/Indicator: TA98, Metabolic Activation: HAMSTER, LIVER, S-9, AROCLOR 1254 (10%), Method: PREINCUBATION): inactive; negative
- mutagenic call [1]: inactive; negative
- mutagenic call (Test System: AMES SALMONELLA TYPHIMURIUM, Strain/Indicator: TA98, Metabolic Activation: RAT, LIVER, S-9, AROCLOR 1254 (10%), Method: PREINCUBATION): inactive; negative
- mutagenic call (Test System: AMES SALMONELLA TYPHIMURIUM, Strain/Indicator: TA100, Metabolic Activation: HAMSTER, LIVER, S-9, AROCLOR 1254 (10%), Method: PREINCUBATION): inactive; negative
- mutagenic call [2]: inactive; negative
- mutagenic call (Test System: AMES SALMONELLA TYPHIMURIUM, Strain/Indicator: TA100, Metabolic Activation: RAT, LIVER, S-9, AROCLOR 1254 (10%), Method: PREINCUBATION): inactive; negative
- mutagenic call (Test System: AMES SALMONELLA TYPHIMURIUM, Strain/Indicator: TA1535, Metabolic Activation: HAMSTER, LIVER, S-9, AROCLOR 1254 (10%), Method: PREINCUBATION): inactive; negative
- mutagenic call [3]: inactive; negative
- mutagenic call (Test System: AMES SALMONELLA TYPHIMURIUM, Strain/Indicator: TA1535, Metabolic Activation: RAT, LIVER, S-9, AROCLOR 1254 (10%), Method: PREINCUBATION): inactive; negative
- mutagenic call (Test System: AMES SALMONELLA TYPHIMURIUM, Strain/Indicator: TA1537, Metabolic Activation: HAMSTER, LIVER, S-9, AROCLOR 1254 (10%), Method: PREINCUBATION): inactive; negative
- mutagenic call [4]: inactive; negative
- mutagenic call (Test System: AMES SALMONELLA TYPHIMURIUM, Strain/Indicator: TA1537, Metabolic Activation: RAT, LIVER, S-9, AROCLOR 1254 (10%), Method: PREINCUBATION): inactive; negative

SMILES: CCOc1ccc(NC(N)=O)cc1
- mutagenic call (Test System: AMES SALMONELLA TYPHIMURIUM, Strain/Indicator: TA98, Metabolic Activation: HAMSTER, LIVER, S-9, AROCLOR 1254, Method: PREINCUBATION): inactive; negative
- mutagenic call [1]: inactive; negative
- mutagenic call (Test System: AMES SALMONELLA TYPHIMURIUM, Strain/Indicator: TA98, Metabolic Activation: RAT, LIVER, S-9, AROCLOR 1254, Method: PREINCUBATION): inactive; negative
- mutagenic call (Test System: AMES SALMONELLA TYPHIMURIUM, Strain/Indicator: TA100, Metabolic Activation: HAMSTER, LIVER, S-9, AROCLOR 1254, Method: PREINCUBATION): inactive; negative
- mutagenic call [2]: inactive; negative
- mutagenic call (Test System: AMES SALMONELLA TYPHIMURIUM, Strain/Indicator: TA100, Metabolic Activation: RAT, LIVER, S-9, AROCLOR 1254, Method: PREINCUBATION): inactive; negative
- mutagenic call (Test System: AMES SALMONELLA TYPHIMURIUM, Strain/Indicator: TA1535, Metabolic Activation: HAMSTER, LIVER, S-9, AROCLOR 1254, Method: PREINCUBATION): inactive; negative
- mutagenic call [3]: inactive; negative
- mutagenic call (Test System: AMES SALMONELLA TYPHIMURIUM, Strain/Indicator: TA1535, Metabolic Activation: RAT, LIVER, S-9, AROCLOR 1254, Method: PREINCUBATION): inactive; negative
- mutagenic call (Test System: AMES SALMONELLA TYPHIMURIUM, Strain/Indicator: TA1537, Metabolic Activation: HAMSTER, LIVER, S-9, AROCLOR 1254, Method: PREINCUBATION): inactive; negative
- mutagenic call [4]: inactive; negative
- mutagenic call (Test System: AMES SALMONELLA TYPHIMURIUM, Strain/Indicator: TA1537, Metabolic Activation: RAT, LIVER, S-9, AROCLOR 1254, Method: PREINCUBATION): inactive; negative

SMILES: Cc1cc2c3c(cccc3c1)-c1cc3ccccc3cc1-2
- mutagenic call (Test System: AMES SALMONELLA TYPHIMURIUM, Strain/Indicator: TA100, Metabolic Activation: RAT, LIVER, S-9, AROCLOR 1254): active; positive

SMILES: O=C(c1ccc(O)cc1)c1ccc(O)cc1
- mutagenic call (End Point: In vitro micronucleus, Test System: HepG2 cells, Metabolic Activation: None): inactive; negative

SMILES: ClCc1c2ccccc2cc2ccccc12
- mutagenic call [1]: active; positive
- mutagenic call (Test System: AMES SALMONELLA TYPHIMURIUM, Strain/Indicator: TA98, Metabolic Activation: RAT, LIVER, S-9, PCB, Method: PREINCUBATION): active; positive
- mutagenic call [2]: active; positive
- mutagenic call (Test System: AMES SALMONELLA TYPHIMURIUM, Strain/Indicator: TA100, Metabolic Activation: RAT, LIVER, S-9, PCB, Method: PREINCUBATION): active; positive

SMILES: COc1ccc(O)c2c(=O)c3c(OC)cc4c(c3oc12)C1CCOC1O4 (stereo not given)
- mutagenic call (Test System: AMES SALMONELLA TYPHIMURIUM, Strain/Indicator: TA98, Metabolic Activation: RAT, LIVER, S-9, PHENOBARBITAL, Method: STANDARD PLATE): inactive; negative
- mutagenic call (Test System: AMES SALMONELLA TYPHIMURIUM, Strain/Indicator: TA100, Metabolic Activation: RAT, LIVER, S-9, PHENOBARBITAL, Method: STANDARD PLATE): inactive; negative

SMILES: Oc1ccccc1-c1nc2ccccc2o1
- mutagenic call [5]: inactive; negative
- mutagenic call (Test System: AMES SALMONELLA TYPHIMURIUM, Strain/Indicator: TA98, Metabolic Activation: S-9, Method: STANDARD PLATE): inactive; negative
